Laboratory results published in ChEMBL document CHEMBL1142027, “In vivo incorporation of an alkyne into proteins in Escherichia coli” (Bioorg Med Chem Lett, 2005).
≈ marks a conversion by molar mass, not a printed value.

System: Escherichia coli
Test: Inhibitory concentration of compound was determined against Escherichia coli in the absence of alkynyl amino acid 1
Format: functional, organism-based

IC50: 5 mg/L (≈ 15.5 µM)
SMILES: O=C(N[C@H](CO)[C@H](O)c1ccc([N+](=O)[O-])cc1)C(Cl)Cl [CHLORAMPHENICOL]
